US11485742B2, “2-azaspiro[3.4]octane derivatives as M4 agonists” (NOVARTIS AG, priority 2019, dated 2022)

Biological target: T1, Cloned human M1 receptor (CHRM1) (Homo sapiens, UniProt P11229)
T1 construct: expressed in transfected cells; host or cells: HEK293
T1 sequence (P11229 1-460): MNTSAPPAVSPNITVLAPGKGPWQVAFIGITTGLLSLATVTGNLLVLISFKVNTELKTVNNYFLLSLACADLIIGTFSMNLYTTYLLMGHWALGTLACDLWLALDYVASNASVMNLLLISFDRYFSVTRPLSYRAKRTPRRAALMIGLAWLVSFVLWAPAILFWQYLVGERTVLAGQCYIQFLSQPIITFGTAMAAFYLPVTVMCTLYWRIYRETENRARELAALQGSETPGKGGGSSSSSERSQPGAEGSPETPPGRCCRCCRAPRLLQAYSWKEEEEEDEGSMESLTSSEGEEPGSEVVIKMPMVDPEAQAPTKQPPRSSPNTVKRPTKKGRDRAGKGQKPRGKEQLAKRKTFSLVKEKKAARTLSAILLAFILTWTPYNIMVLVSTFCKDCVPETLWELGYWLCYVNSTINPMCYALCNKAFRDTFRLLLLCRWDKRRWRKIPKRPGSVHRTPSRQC
Assay: CHRM1 Ca++ Flux Assay (HEK293 M1 cells, agonist mode)
Type: cell-based
Conditions: for Emax / M1 FDSS PA %: Percent Activity (PA); for Emax: read-out: M1 FDSS PA %; for EC50: geometric mean if tested more than once, read-out: M1 FDSS EC50
Description: The above examples were characterized by measuring the intracellular mobilization of Ca^++ ions caused by signaling events mediated by the receptor. The Intra-cellular Calcium flux levels were captured by the highly sensitive Ca^++ indicator, Calcium Assay Kit (BD Biosciences; Catalog Number 640178. The fluorescent activity from all receptors were monitored by the fluorescent imager, FDSS 7000EX (Hamamatsu) over a span of 3 minutes. The change in Calcium flux was readily captured upon activation with the muscarinic orthosteric agonist, Carbachol.
Cloned human M1 receptor (CHRM1) was stably expressed in HEK293 cells and were grown and maintained in a monolayer culture with DMEM/High Glucose (Life Technologies) supplemented with 10% Fetal Bovine Serum, 1×Pen-Strep, and 0.5 mg/mL Geneticin in a humidified atmosphere (5% CO2) at 37° C. The cultures were grown to 90% confluency in T150 flasks (Corning) and washed with 1×DPBS and lifted with 0.05% Trypsin (Life Technologies). The cells were then spun (1K rpm, 3 minutes) and frozen using Recovery Cell Culture Freezing Media (Gibco Technologies). Cells were stored in liquid nitrogen and thawed a day before the assay.
Prior to the day of the assay, stable HEK293 M1 cells were thawed and plated on 384 well black walled clear bottom TC treated plates (Greiner Cat #781091) at 25K cells/well with DMEM/High Glucose supplemented with 10% FBS (Hyclone) Pen-Strep (Life Technologies) and kept overnight in a humidified atmosphere (5% CO2) at 37° C. The following day, cells were loaded with 20 uL Ca^++ dye (BD Biosciences) using Loading Buffer (HBSS +Ca/+Mg, 20 mM HEPES) and placed back in cell incubator for a minimum of 1 hour. The dye was replaced with 45 μL Assay Buffer (HBSS −Ca/−Mg, 20 mM HEPES) and kept at room temperature prior to running on cell imager. Compounds were prepared in Assay Buffer and 5 uL was added to the cells. The FDSS 7000EX (Hamamatsu) was used to acquire Ca++ traces for 3 minutes from cells treated with 11 point dose in triplicate in order to generate dose response curves in agonist mode. All compounds were serially diluted in DMSO then prepared in Assay Buffer for Ca^++ flux studies. The dose response curves were generated from the average of triplicate wells obtained from each data point and used a non-linear regression of four parameter dose response algorithm. The Percent Activity (PA) was measured to EC100 of Carbachol.
If an Example was tested more than once in an assay, then the values below represent the geometric mean of the results from each independent experiment.

| SMILES | Emax | EC50 | M1 FDSS PA % |
| --- | --- | --- | --- |
| c1ccc(C2CCN([C@@H]3COC4(C3)CN(c3ncco3)C4)CC2)c(O[C@H]2CCOC2)c1 [Example 4H, (S)-2-(oxazol-2-yl)-7-(4-(2-(((S)-tetrahydrofuran-3-yl)oxy)phenyl)piperidin-1-yl)-5-oxa-2-azaspiro[3.4]octane] | 63% | 745 nM | – |
| Fc1ccc(OC2CCOCC2)c(C2CCN([C@@H]3COC4(C3)CN(c3nncs3)C4)CC2)c1 [Example 5J, (S)-7-(4-(5-fluoro-2-((tetrahydro-2H-pyran-4-yl)oxy)phenyl)piperidin-1-yl)-2-(1,3,4-thiadiazol-2-yl)-5-oxa-2-azaspiro[3.4]octane] | 6% | 1200 nM | – |
| CC(C)(O)[C@H]1C[C@H](Oc2ccc(F)cc2C2CCN([C@@H]3COC4(C3)CN(c3nnco3)C4)CC2)C1 (single isomer, unassigned) [Example 2V, 2-((1S,3r)-3-(2-(1-((S)-2-(1,3,4-oxadiazol-2-yl)-5-oxa-2-azaspiro[3.4]octan-7-yl)piperidin-4-yl)-4-fluorophenoxy)cyclobutyl)propan-2-ol or 2-((1R,3s)-3-(2-(1-((S)-2-(1,3,4-oxadiazol-2-yl)-5-oxa-2-azaspiro[3.4]octan-7-yl)piperidin-4-yl)-4-fluorophenoxy)cyclobutyl)propan-2-ol] | – | 1650 nM | 31% |
| CC(C)(O)[C@H]1C[C@H](Oc2ccc(F)cc2C2CCN([C@@H]3COC4(C3)CN(c3nnco3)C4)CC2)C1 (single isomer, unassigned) [Example 2W, 2-((1S,3r)-3-(2-(1-((S)-2-(1,3,4-oxadiazol-2-yl)-5-oxa-2-azaspiro[3.4]octan-7-yl)piperidin-4-yl)-4-fluorophenoxy)cyclobutyl)propan-2-ol or 2-((1R,3s)-3-(2-(1-((S)-2-(1,3,4-oxadiazol-2-yl)-5-oxa-2-azaspiro[3.4]octan-7-yl)piperidin-4-yl)-4-fluorophenoxy)cyclobutyl)propan-2-ol] | – | 3440 nM | 66% |
| COc1cc(F)ccc1C1CCN([C@@H]2COC3(C2)CN(c2nncs2)C3)CC1 [Example 5T, (S)-7-(4-(4-fluoro-2-methoxyphenyl)piperidin-1-yl)-2-(1,3,4-thiadiazol-2-yl)-5-oxa-2-azaspiro[3.4]octane] | 57% | 1790 nM | – |
| Cc1nc(COc2ccccc2C2CCN([C@@H]3COC4(C3)CN(c3nncs3)C4)CC2)no1 [Example 5F, (S)-7-(4-(2-((5-methyl-1,2,4-oxadiazol-3-yl)methoxy)phenyl)piperidin-1-yl)-2-(1,3,4-thiadiazol-2-yl)-5-oxa-2-azaspiro[3.4]octane] | 106% | 11 nM | – |
| Fc1ccc(OC2CC3(COC3)C2)c(C2CCN([C@@H]3COC4(C3)CN(c3ncco3)C4)CC2)c1 [Example 4G, (S)-7-(4-(2-((2-oxaspiro[3.3]heptan-6-yl)oxy)-5-fluorophenyl)piperidin-1-yl)-2-(oxazol-2-yl)-5-oxa-2-azaspiro[3.4]octane] | 62% | 1760 nM | – |
| CC1(C)C[C@@H](Oc2ccc(F)cc2C2CCN([C@@H]3COC4(C3)CN(c3nnco3)C4)CC2)CO1 (single isomer, unassigned) [Example 2O, (S)-7-(4-(2-(((R)-5,5-dimethyltetrahydrofuran-3-yl)oxy)-5-fluorophenyl)piperidin-1-yl)-2-(1,3,4-oxadiazol-2-yl)-5-oxa-2-azaspiro[3.4]octane or (S)-7-(4-(2-(((S)-5,5-dimethyltetrahydrofuran-3-yl)oxy)-5-fluorophenyl)piperidin-1-yl)-2-(1,3,4-oxadiazol-2-yl)-5-oxa-2-azaspiro[3.4]octane] | – | 1120 nM | 72% |
| c1ccc([C@@H]2CCOC2)c(C2CCN([C@@H]3COC4(C3)CN(c3nnco3)C4)CC2)c1 (single isomer, unassigned) [Example 3B, (S)-2-(1,3,4-oxadiazol-2-yl)-7-(4-(2-((S)-tetrahydrofuran-3-yl)phenyl)piperidin-1-yl)-5-oxa-2-azaspiro[3.4]octane or (S)-2-(1,3,4-oxadiazol-2-yl)-7-(4-(2-((R)-tetrahydrofuran-3-yl)phenyl)piperidin-1-yl)-5-oxa-2-azaspiro[3.4]octane] | – | 1120 nM | 82% |
| Fc1ccc(OC[C@H]2COCCO2)c(C2CCN([C@@H]3COC4(C3)CN(c3ncco3)C4)CC2)c1 [Example 4B, (S)-7-(4-(2-(((R)-1,4-dioxan-2-yl)methoxy)-5-fluorophenyl)piperidin-1-yl)-2-(oxazol-2-yl)-5-oxa-2-azaspiro[3.4]octane] | 117% | 424 nM | – |
| c1ccc(C2CCN([C@@H]3COC4(C3)CN(c3ncco3)C4)CC2)c(O[C@@H]2CCOC2)c1 [Example 4F, (S)-2-(oxazol-2-yl)-7-(4-(2-(((R)-tetrahydrofuran-3-yl)oxy)phenyl)piperidin-1-yl)-5-oxa-2-azaspiro[3.4]octane] | 90% | 540 nM | – |
| O[C@H]1CC[C@@H](c2ccc(F)cc2C2CCN([C@@H]3COC4(C3)CN(c3nnco3)C4)CC2)CC1 (single isomer, unassigned) [Example 3H, (1R,4s)-4-(2-(1-((S)-2-(1,3,4-oxadiazol-2-yl)-5-oxa-2-azaspiro[3.4]octan-7-yl)piperidin-4-yl)-4-fluorophenyl)cyclohexan-1-ol or (1S,4r)-4-(2-(1-((S)-2-(1,3,4-oxadiazol-2-yl)-5-oxa-2-azaspiro[3.4]octan-7-yl)piperidin-4-yl)-4-fluorophenyl)cyclohexan-1-ol] | – | 2410 nM | 84% |
| Fc1ccc(OC[C@@H]2COCCO2)c(C2CCN([C@@H]3COC4(C3)CN(c3nnco3)C4)CC2)c1 [Example 1F, (S)-7-(4-(2-(((S)-1,4-dioxan-2-yl)methoxy)-5-fluorophenyl)piperidin-1-yl)-2-(1,3,4-oxadiazol-2-yl)-5-oxa-2-azaspiro[3.4]octane] | 83% | 368 nM | – |
| Fc1cc(F)c(OC2CCOCC2)c(C2CCN([C@@H]3COC4(C3)CN(c3nnco3)C4)CC2)c1 [Example 2BB, (S)-7-(4-(3,5-difluoro-2-((tetrahydro-2H-pyran-4-yl)oxy)phenyl)piperidin-1-yl)-2-(1,3,4-oxadiazol-2-yl)-5-oxa-2-azaspiro[3.4]octane] | 65% | 7000 nM | – |
| c1ccc(C2CCN([C@@H]3COC4(C3)CN(c3nnco3)C4)CC2)c(C2CCOCC2)c1 [Example 3C, (S)-2-(1,3,4-oxadiazol-2-yl)-7-(4-(2-(tetrahydro-2H-pyran-4-yl)phenyl)piperidin-1-yl)-5-oxa-2-azaspiro[3.4]octane] | 78% | 3890 nM | – |
| C[C@H](Oc1ccc(F)cc1C1CCN([C@@H]2COC3(C2)CN(c2nnco2)C3)CC1)C1CCOCC1 (single isomer, unassigned) [Example 2Y, (S)-7-(4-(5-fluoro-2-((S)-1-(tetrahydro-2H-pyran-4-yl)ethoxy)phenyl)piperidin-1-yl)-2-(1,3,4-oxadiazol-2-yl)-5-oxa-2-azaspiro[3.4]octane or (S)-7-(4-(5-fluoro-2-((R)-1-(tetrahydro-2H-pyran-4-yl)ethoxy)phenyl)piperidin-1-yl)-2-(1,3,4-oxadiazol-2-yl)-5-oxa-2-azaspiro[3.4]octane] | – | 10800 nM | 51% |
| c1ccc(C2CCN([C@@H]3COC4(C3)CN(c3ncco3)C4)CC2)c(C2CCOCC2)c1 [Example 4V, (S)-2-(oxazol-2-yl)-7-(4-(2-(tetrahydro-2H-pyran-4-yl)phenyl)piperidin-1-yl)-5-oxa-2-azaspiro[3.4]octane] | 72% | 1990 nM | – |
| COc1ccc(Cl)cc1C1CCN([C@@H]2COC3(C2)CN(c2ncns2)C3)CC1 [Example 5A, (S)-7-(4-(5-chloro-2-methoxyphenyl)piperidin-1-yl)-2-(1,2,4-thiadiazol-5-yl)-5-oxa-2-azaspiro[3.4]octane] | 70% | 630 nM | – |
